The values that follow come from patent publication US12343319B2, “Compositions and methods for treatment of diseases and disorders” (Atai Therapeutics Inc., priority 2023, dated 2025).

For series [1], the target named is 5-HT2A (Homo sapiens, UniProt P28223). Description: Ca++ (calcium mobilization), 5-HT2A. The series is classed as cell-based. The note with it: for Emax: read-out: Emax (%5-HT). Details: expressed in transfected cells. Here is the method:
(§1) In vitro pharmacology studies were performed to evaluate the effects of compound 2-1 on functional activity of several 5-HT receptors using recombinant target overexpression cell culture systems. The effect of compound 2-1 on G protein-dependent signaling was investigated at 5-HT2A, 5-HT2B, and 5-HT2C receptors with calcium mobilization and IPOne assays; and at 5-HT1A, 5-HT1B, 5-HT1F, 5-HT5A, and 5-HT7D receptors with a cAMP assay. G protein-independent signaling was investigated at the 5-HT2A receptor with a β-Arrestin assay.
(§2) In vitro pharmacology studies were performed to evaluate the effects of compound 2-2 on functional activity at several 5-HT receptors using recombinant target overexpression cell culture systems. The effect of compound 2-2 on G protein-dependent signaling was investigated at 5-HT2A, 5-HT2B, and 5-HT2C receptors with calcium mobilization and IPOne assays; and at 5-HT1A, 5-HT1B, 5-HT1F, 5-HT5A, and 5-HT7D receptors with a cAMP assay. G protein-independent signaling was investigated at the 5-HT2A receptor with a β-arrestin assay. […] In Table 4, 5-HT receptor selectivity was calculated using ΔΔlog(Emax/EC50). Assay reference α-Me-5-HT or 5-HT was used for normalization at each receptor (5-HT2A/5-HT2B selectivity=1; 5-HT2A/5-HT2C selectivity=1). ND in Table 4 indicates, not determined, plateau was not reached within the concentration range tested to determine Emax.

For the next series, the system named is Male WKY rats. Description: Sleep-wake behavior, EEG power, body temperature and locomotor activity in WKY rats. Format: in vivo, rat. As for the experimental part: Male WKY rats (n=7, 289-388 g at the start of dosing) were housed in groups of 2-3 animals per cage with standard housing conditions. For implantation of the EEG electrodes and radio transmitter, the animals were anesthetized with isoflurane (2-5% in oxygen at 11/min) throughout the procedure. The scalp, neck and right flank were cleared of hair using clippers and cleaned using diluted Hibitane (chlorhexidine, 50% (v/v) in water). A non-steroidal anti-inflammatory agent was administered (carprofen 5 mg/kg, s.c.) and the animals placed on a homeothermic blanket (37° C.) with the head fixed in a stereotaxic frame. Incisions were made in the scalp and neck, as well as in the right flank. Blunt dissection of the abdominal muscle was then made to gain access to the peritoneal cavity. A radio transmitter (HD-S02, Data Sciences International) was implanted in the peritoneal cavity and secured to the muscle wall with non-absorbable sutures. The wires of the transmitter were passed using a 19G needle through the muscle wall and then sub-dermally to the scalp to act as Electroencephalogram (EEG)/Electromyograph (EMG) electrodes. The scalp was cleared of connective tissue and two craniotomies were made with a trepanning drill (fronto-parietal coordinates; Bregma+2 mm anterior, midline+1.0 mm lateral and Lambda 0 mm, +1.5 mm lateral). The positive EEG electrode was attached to the anterior craniotomy and the negative EEG electrode to the posterior craniotomy. Both electrodes were secured in place using a suitable adhesive agent (cyanoacrylate gel, RS components). A second set of electrodes were sutured into the nuchal muscle to act as EMG electrodes. All incisions were closed using absorbable suture.
All animals were allowed to recover in a warm environment and given 5 ml of saline subcutaneously (s.c.). Animals were kept singly in the cage until the next day, then pair housed for the duration of post-surgical recovery (minimum 7 days). During the recovery period, the rats received 5 days of standard post-operative care with no further experimental procedures until the pre-operative body weight was regained. The animals were maintained on a 12/12 hour light dark cycle (08:00 am lights on) after the surgery. Home cages and post-operative cages contained bedding and nesting material, along with environmental enrichment such as wooden chew-sticks and plastic tunnels.
On test days, ˜60 minutes after lights-on, animals were placed in recording boxes similar to their home-cages, except that environmental enrichment was restricted to a large bundle of nesting and bedding material, to avoid interference with the telemeter signals. Then, data acquisition was initiated for confirmation of signal quality. EEG and EMG data were acquired using intraperitoneal HD-S02 transmitters (DSI, New Brighton, MN) and Spike2 software (CED). EEG and EMG signals were digitized 500 samples/second, amplified 1000× and bandpass filtered at 0.5-100 Hertz (Hz). After 60 minutes of habituation, each animal was briefly removed from its box and dosed via the intraperitoneal (i.p.) route in a volume of 2 mL/kg. Test conditions included saline vehicle, psilocybin (10 mg/kg) positive control, compound 2-1 at 3, 10 and 30 mg/kg and compound 2-2 at 10, 17 and 30 mg/kg. Doses were based on the molecular weight of the free bases. compound 2-1 and compound 2-2 dosing solutions were prepared in 40% (w/v) hydroxypropyl-beta-cyclodextrin. After dosing, animals were immediately put back into the recording boxes, the experimenter left the room, and recordings continued uninterrupted for 23 hours. At the end of the recording session, the transmitters were turned off and the animals were returned to their home cages. All animals received all treatment conditions in a pseudo randomized cross-over fashion with a minimum washout period of 7 days between doses.
All data was aligned to zero (the time of dosing), with epochs defined as non-overlapping 10-second time segments. […]

The target in another series is T1, 5-HT7D (Homo sapiens, UniProt P34969).
T1 construct: expressed in transfected cells
T1 sequence (P34969 whole entry): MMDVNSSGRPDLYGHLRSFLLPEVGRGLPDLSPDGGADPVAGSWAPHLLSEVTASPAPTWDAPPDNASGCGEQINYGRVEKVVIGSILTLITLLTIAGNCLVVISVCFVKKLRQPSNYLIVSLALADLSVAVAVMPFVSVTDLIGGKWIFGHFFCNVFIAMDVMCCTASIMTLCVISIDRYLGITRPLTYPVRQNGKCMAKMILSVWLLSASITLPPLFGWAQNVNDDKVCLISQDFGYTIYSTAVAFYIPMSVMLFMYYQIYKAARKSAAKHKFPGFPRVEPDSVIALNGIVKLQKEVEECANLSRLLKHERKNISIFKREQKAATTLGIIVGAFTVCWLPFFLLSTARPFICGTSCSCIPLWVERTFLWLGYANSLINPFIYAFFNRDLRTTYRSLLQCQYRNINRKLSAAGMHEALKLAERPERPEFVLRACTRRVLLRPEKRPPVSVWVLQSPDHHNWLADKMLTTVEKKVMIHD
Description: cAMP, 5-HT7D. Format: cell-based. As for the experimental part:
as §1, §2

A further series has as its target 5-HT2B (rat) (Rattus norvegicus, UniProt P30994). Nature of the series: IPOne, rat 5-HT2B. Format: cell-based. From the text:
Overall, in vitro activity at rodent 5-HT2A and 5-HT2B receptors is consistent with the human receptor results, with compound 2-1 acting as a potent and selective 5-HT2A agonist.
Overall, in vitro activity at rodent 5-HT2A and […] receptors is consistent with the human receptor results, with compound 2-2 acting as a potent and selective 5-HT2A agonist. In Table 5, ND indicates not determined.

Series [2] deals with T2, 5-HT2B (Homo sapiens, UniProt P41595).
T2 construct: expressed in transfected cells
T2 sequence (P41595 whole entry): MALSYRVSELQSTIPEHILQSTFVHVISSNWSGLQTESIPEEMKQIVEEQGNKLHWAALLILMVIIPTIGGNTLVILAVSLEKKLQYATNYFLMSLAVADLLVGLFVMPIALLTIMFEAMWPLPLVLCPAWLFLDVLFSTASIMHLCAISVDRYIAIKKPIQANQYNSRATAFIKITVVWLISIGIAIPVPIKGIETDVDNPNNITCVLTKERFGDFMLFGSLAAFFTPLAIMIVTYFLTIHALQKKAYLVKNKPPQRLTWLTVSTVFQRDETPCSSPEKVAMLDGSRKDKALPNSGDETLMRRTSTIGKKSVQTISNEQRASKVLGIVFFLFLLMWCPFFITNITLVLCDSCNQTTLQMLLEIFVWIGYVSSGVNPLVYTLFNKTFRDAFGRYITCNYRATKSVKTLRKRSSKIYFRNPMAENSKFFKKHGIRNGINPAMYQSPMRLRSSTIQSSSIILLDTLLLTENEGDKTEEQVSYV
Nature of the series: IPOne, 5-HT2B. Format: cell-based. The note with it: for Emax: IPOne, human 5-HT2B, read-out: Emax (% α-Me-5-HT). Here is the method:
as §1, §2

Series [3] has as its system 5-HT2A. Description: IPOne, 5-HT2A. Format: cell-based, human. The note with it: IPOne, human; calculated using ΔΔlog(Emax/EC50), reference = 1. As for the experimental part:
as §1, §2

For series [4], the target named is T2, 5-HT2B. Nature of the series: Radioligand binding, 5-HT2B. The following applies: for Max % inhibition: radioligand binding, human 5-HT2B.
[5] abbreviates: male WKY rats, IP, initial 4 hours following dosing.
Setting [6] is: over 6 hours post dose, WKY rats, IP.

Sequence of 5-HT2B (rat) (P30994 whole entry): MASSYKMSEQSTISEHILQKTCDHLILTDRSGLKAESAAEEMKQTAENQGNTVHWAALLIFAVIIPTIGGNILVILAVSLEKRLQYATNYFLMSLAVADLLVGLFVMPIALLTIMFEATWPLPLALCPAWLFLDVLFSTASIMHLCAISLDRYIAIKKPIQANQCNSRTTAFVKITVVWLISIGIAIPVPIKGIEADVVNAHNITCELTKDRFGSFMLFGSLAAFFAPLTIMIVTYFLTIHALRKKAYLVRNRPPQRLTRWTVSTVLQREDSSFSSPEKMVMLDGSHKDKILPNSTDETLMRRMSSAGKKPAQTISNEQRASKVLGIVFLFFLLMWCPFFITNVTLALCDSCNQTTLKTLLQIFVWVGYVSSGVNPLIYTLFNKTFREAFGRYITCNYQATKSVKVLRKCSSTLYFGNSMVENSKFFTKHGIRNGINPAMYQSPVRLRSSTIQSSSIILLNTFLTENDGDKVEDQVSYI
Sequence of 5-HT2A (Homo sapiens, UniProt P28223) (P28223 whole entry): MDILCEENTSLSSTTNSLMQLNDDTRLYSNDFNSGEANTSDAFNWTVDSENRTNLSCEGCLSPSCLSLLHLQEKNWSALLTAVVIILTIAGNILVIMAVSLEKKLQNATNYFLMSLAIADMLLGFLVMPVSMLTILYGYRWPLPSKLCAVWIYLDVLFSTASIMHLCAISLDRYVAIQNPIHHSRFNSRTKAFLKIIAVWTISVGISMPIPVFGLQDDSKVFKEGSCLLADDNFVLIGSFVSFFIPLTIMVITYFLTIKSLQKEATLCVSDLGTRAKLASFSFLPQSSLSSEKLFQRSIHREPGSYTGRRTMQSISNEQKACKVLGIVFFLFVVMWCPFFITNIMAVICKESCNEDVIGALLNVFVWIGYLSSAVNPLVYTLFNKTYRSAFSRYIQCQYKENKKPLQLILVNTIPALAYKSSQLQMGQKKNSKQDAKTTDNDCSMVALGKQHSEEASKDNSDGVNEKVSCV

On to `COc1ccc(OC)c(CCNCc2cc(C)cc(Cl)c2)c1` [Compound 2-1, N-(3-chloro-5-methylbenzyl)-2-(2,5-dimethoxyphenyl)ethan-1-amine], for which the concentration giving a half-maximal response (EC50) is 4.24 nM on 5-HT2A [1], above 100000 nM at 5-HT7D, above 1000 nM on 5-HT2B (rat) and 34.7 nM at 5-HT2B [2]. The Emax on 5-HT2A [1] came to 93.3%; on 5-HT2B [2], 77.6%. Further, in the series on Male WKY rats (3 mg/kg i.p., interval starting at 5 hours post dose), the “non-REM sleep amount vs vehicle” value was “significantly increased”. For the same molecule, the “latency to non-REM (NREM) sleep vs vehicle” value with Male WKY rats (10 mg/kg i.p.) was “significantly increased”. Moreover, the “persistence of significant effect on delta power during non-REM sleep” value with Male WKY rats (30 mg/kg i.p.) is given as “persisted through the period starting at 4 hours post dose”. Besides, in the series on Male WKY rats (30 mg/kg i.p., over 24 hours post dose), the “high gamma power during waking” value was “significant and lasting decrease”. Further, in the series on Male WKY rats (3, 10 and 30 mg/kg i.p.), the “amount of time spent in wake vs vehicle” value was “significantly increased”. Further, the “amount of time spent in non-REM sleep vs vehicle” value in the series on Male WKY rats (3, 10 and 30 mg/kg i.p., first 3 hours after administration) was “significantly decreased”. In the series with Male WKY rats (3, 10 and 30 mg/kg i.p., post-dose period 0-2 hours), the “low frequency (delta and theta) power during non-REM sleep” value is “significantly decreased”. In the series on Male WKY rats (10 and 30 mg/kg i.p.), the “latency to REM sleep vs vehicle” value was “significantly increased”. The “amount of time spent in REM sleep vs vehicle” value with Male WKY rats (10 and 30 mg/kg i.p., starting in the third hour post dose) is “significantly decreased”. Also, the “waking high gamma power” value with Male WKY rats (setting [5]) is “decreased”. Besides, in the series on Male WKY rats (setting [5]), the “waking theta and beta power” value is on record as “significantly increased”. Also, the body temperature entry with Male WKY rats (setting [6]) was “↓ (for 6 h)”. Further, the “agonist activity (in words)” value at 5-HT2B (rat) (rat 5-HT2B receptor) is “inactive”; at 5-HT2B [2] (human 5-HT2B receptor), “full agonist activity”. The “5-HT2A/5-HT2B Selectivity” value in the series with 5-HT2A [3] is given as 160. The molecule further displayed a half-maximal inhibitory concentration (IC50) at 5-HT2B [4] of 84.9 nM. Besides, on 5-HT2B [4], the Max % inhibition was 102.5%.
As for `COc1ccc(OC)c(CCNCc2cc(C)cc(F)c2)c1` [Compound 2-2, 2-(2,5-dimethoxyphenyl)-N-(3-fluoro-5-methylbenzyl)ethan-1-amine], the concentration for a half-maximal effect (EC50) was 9 nM at 5-HT2A [1], above 100000 nM at 5-HT7D, above 1000 nM at 5-HT2B (rat) and 81.1 nM on 5-HT2B [2]. The maximal response (Emax) on 5-HT2A [1] amounted to 88%; on 5-HT2B [2] it was 49.3%. Also, the “effects on body temperature and locomotor activity” value with Male WKY rats (male WKY rats) is reported as “minimal effects”. Also, the Locomotor activity entry with Male WKY rats (setting [6]) was “No Δ (No significant change)”. Further, the “5-HT2A/5-HT2B Selectivity” value in the series on 5-HT2A [3] is given as 177. Further, the 50% inhibitory concentration (IC50) at 5-HT2B [4] was determined as 321 nM. In addition, the Max % inhibition on 5-HT2B [4] is listed as 99.56%.
